Data taken from PMC5910229 (Neuron, 2018).

T1: RIM1 C2B (RIM1α C2B domain) (Rattus norvegicus, UniProt Q9JIR4)
T1 sequence (Q9JIR4 1447-1615): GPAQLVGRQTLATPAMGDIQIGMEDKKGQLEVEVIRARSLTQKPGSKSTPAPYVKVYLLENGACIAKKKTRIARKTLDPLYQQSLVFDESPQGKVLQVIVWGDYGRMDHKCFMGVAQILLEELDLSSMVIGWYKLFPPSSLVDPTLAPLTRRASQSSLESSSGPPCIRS

B1: RIM1α C2B domain (GST tag cleaved) (domain or fragment, rat)
chain: T1 sequence (Q9JIR4 1447-1615)

Columns and labels:
[1] = target: T1, RIM1 C2B (RIM1α C2B domain); assay: 1H-15N HSQC NMR titration; type: binding
[2] = target: the molecule itself; assay: AUC

Molecule	Kd [1] [µM]	Kd [2] [µM]
CCCC(=O)OC[C@H](COP(=O)(O)O[C@@H]1[C@H](O)[C@H](O)[C@@H](OP(=O)(O)O)[C@H](OP(=O)(O)O)[C@H]1O)OC(=O)CCC [diC4-PIP2]	32 to 79	–
B1	–	~3000
